In ChEMBL document CHEMBL2177089, “Novel tetrahydropyrido[1,2-a]isoindolone derivatives (valmerins): potent cyclin-dependent kinase/glycogen synthase kinase 3 inhibitors with antiproliferative activities and antitumor effects in human tumor xenografts” (J Med Chem, 2012):
Activity calls are given as the source filed them. The rule behind the calls is not given here.

Experiments:
[1] = molecular target: Glycogen synthase kinase-3 (Sus scrofa, UniProt B2LUN4+I6LNT8); assay: Inhibition of porcine brain GSK-3alpha/beta using YRRAAVPPSPSLSRHSSPHQpSEDEEE as substrate and [gamma-33P]-ATP after 30 mins by scintillation counting
[2] = system: Caco-2; assay: cells; conditions: Homo sapiens, Caco-2, 48 h
Description: Cytotoxicity against human Caco2 cells after 48 hrs

[3] = system: Huh-7; assay: cells; conditions: Homo sapiens, Huh-7, 48 h
Description: Cytotoxicity against human HuH7 cells after 48 hrs

[4] = Cytotoxicity against human skin fibroblasts cells after 48 hrs; conditions: Fibroblast
[5] = system: PC-3; assay: cells; conditions: Homo sapiens, PC-3, 48 h
Description: Cytotoxicity against human PC3 cells after 48 hrs

[6] = system: NCI-H727; assay: cells; conditions: Homo sapiens, NCI-H727, 48 h
Description: Cytotoxicity against human NCI-H727 cells after 48 hrs

[7] = system: HCT-116; assay: cells; conditions: Homo sapiens, HCT-116, 48 h
Description: Cytotoxicity against human HCT116 cells after 48 hrs

[8] = system: MDA-MB-231; assay: cells; conditions: Homo sapiens, MDA-MB-231, 48 h
Description: Cytotoxicity against human MDA-MB-231 cells after 48 hrs

[9] = Inhibition of porcine brain CK1delta/epsilon using RRKHAAIGpSAYSITA as substrate and [gamma-33P]-ATP after 30 mins by scintillation counting; design: species or system Sus scrofa
[10] = molecular target: Cyclin-dependent kinase 5/CDK5 activator 1 (Homo sapiens, UniProt Q00535); assay: Inhibition of human recombinant CDK5/p25 using histone H1 as substrate and [gamma-33P]-ATP after 30 mins by scintillation counting; assay type: protein-complex assay
[11] = molecular target: Dual specificity tyrosine-phosphorylation-regulated kinase 1A (Homo sapiens, UniProt Q13627); assay: Inhibition of human recombinant GST-fused DYRK1A expressed in Escherichia coli using KKISGRLSPIMTEQ as substrate and [gamma-33P]-ATP after 30 mins by scintillation counting
[12] = molecular target: Cyclin-dependent kinase 1 (Homo sapiens, UniProt P06493); assay: Inhibition of CDK1
[13] = system: Mus musculus; assay: Toxicity in NMRI mouse assessed as blood formulation at 1 to 10 mg/kg, ip qd for 2 weeks; assay type: organism-based; design: dose 1-10 mg/kg, route intraperitoneal; conditions: in vivo, 336 h
[14] = system: PC-3; assay: Cell cycle arrest in human PC3 cells assessed as accumulation at G1 phase at 0.6 uM after 24 hrs; assay type: functional, cell-based
[15] = system: Mus musculus; assay: Toxicity in NMRI mouse assessed as food consumption at 1 to 10 mg/kg, ip qd for 2 weeks; assay type: organism-based; design: dose 1-10 mg/kg, route intraperitoneal; conditions: in vivo, 336 h
[16] = system: Caco-2; assay: Cell cycle arrest in human Caco2 cells assessed as accumulation at G1 phase at 0.6 uM after 24 hrs; assay type: functional, cell-based
[17] = system: HCT-116; assay: Induction of apoptosis in human HCT116 cells assessed as activation of caspase-3 at 0.6 uM after 24 hrs; assay type: functional, cell-based
[18] = system: MDA-MB-231; assay: Cell cycle arrest in human MDA-MB-231 cells assessed as accumulation at G1 phase at 0.6 uM after 24 hrs; assay type: functional, cell-based
[19] = system: HCT-116; assay: Antitumor activity against human HCT116 cells xenografted in nude NMRI mouse assessed as tumor reduction at 10 mg/kg, ip administered 3 times in a week for 4 weeks; assay type: functional; design: scale not given: the % may be the effect or the level left; conditions: route intraperitoneal
[20] = system: HCT-116; assay: Antitumor activity against human HCT116 cells xenografted in nude NMRI mouse assessed as tumor reduction at 10 mg/kg, ip administered 3 times in a week for 4 weeks by whole-body bioluminescent imaging; assay type: functional; design: scale not given: the % may be the effect or the level left; conditions: route intraperitoneal
[21] = system: Mus musculus; assay: Toxicity in NMRI mouse assessed as macroscopic examination of organs at 1 to 10 mg/kg, ip qd for 2 weeks; assay type: organism-based; design: dose 1-10 mg/kg, route intraperitoneal; conditions: in vivo, 336 h
[22] = system: Mus musculus; assay: Toxicity in NMRI mouse assessed as mortality at 1 to 10 mg/kg, ip qd for 2 weeks; assay type: organism-based; design: dose 1-10 mg/kg, route intraperitoneal; conditions: in vivo, 336 h
[23] = system: Huh-7; assay: Cell cycle arrest in human HuH7 cells assessed as accumulation at G1 phase at 0.6 uM after 24 hrs; assay type: functional, cell-based
[24] = system: HCT-116; assay: Cell cycle arrest in human HCT116 cells assessed as accumulation at G1 phase at 0.6 uM after 24 hrs; assay type: functional, cell-based
[25] = system: NCI-H727; assay: Cell cycle arrest in human NCI-H727 cells assessed as accumulation at G1 phase at 0.6 uM after 24 hrs; assay type: functional, cell-based
[26] = system: Mus musculus; assay: Toxicity in NMRI mouse assessed as weight loss at 1 to 10 mg/kg, ip qd for 2 weeks; assay type: organism-based; design: dose 1-10 mg/kg, route intraperitoneal; conditions: in vivo, 336 h
[27] = system: HCT-116; assay: Induction of apoptosis in human HCT116 cells assessed as activation of caspase-3 at 1 uM after 24 hrs; assay type: functional, cell-based
[28] = system: Caco-2; assay: Cell cycle arrest in human Caco2 cells assessed as accumulation at G1 phase at 1 uM after 24 hrs; assay type: functional, cell-based
[29] = system: NCI-H727; assay: Cell cycle arrest in human NCI-H727 cells assessed as accumulation at G1 phase at 1 uM after 24 hrs; assay type: functional, cell-based
[30] = system: PC-3; assay: Cell cycle arrest in human PC3 cells assessed as accumulation at G1 phase at 1 uM after 24 hrs; assay type: functional, cell-based
[31] = system: HCT-116; assay: Cell cycle arrest in human HCT116 cells assessed as accumulation at G1 phase at 1 uM after 24 hrs; assay type: functional, cell-based
[32] = system: Huh-7; assay: Cell cycle arrest in human HuH7 cells assessed as accumulation at G1 phase at 1 uM after 24 hrs; assay type: functional, cell-based
[33] = system: MDA-MB-231; assay: Cell cycle arrest in human MDA-MB-231 cells assessed as accumulation at G1 phase at 1 uM after 24 hrs; assay type: functional, cell-based

Cyclin-dependent kinase 5/CDK5 activator 1, sequence (Q00535 whole entry, the tested form may be a part): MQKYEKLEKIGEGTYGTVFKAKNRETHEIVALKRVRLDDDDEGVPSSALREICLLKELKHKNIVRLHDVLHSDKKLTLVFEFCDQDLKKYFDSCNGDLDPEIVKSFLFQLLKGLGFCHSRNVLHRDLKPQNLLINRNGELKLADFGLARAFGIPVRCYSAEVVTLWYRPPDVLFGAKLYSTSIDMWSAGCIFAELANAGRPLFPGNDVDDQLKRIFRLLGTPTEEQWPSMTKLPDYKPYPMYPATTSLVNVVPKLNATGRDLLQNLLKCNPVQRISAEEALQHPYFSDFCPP
Cyclin-dependent kinase 5/CDK5 activator 1, sequence (Q15078 whole entry, further chain, the tested form may be a part): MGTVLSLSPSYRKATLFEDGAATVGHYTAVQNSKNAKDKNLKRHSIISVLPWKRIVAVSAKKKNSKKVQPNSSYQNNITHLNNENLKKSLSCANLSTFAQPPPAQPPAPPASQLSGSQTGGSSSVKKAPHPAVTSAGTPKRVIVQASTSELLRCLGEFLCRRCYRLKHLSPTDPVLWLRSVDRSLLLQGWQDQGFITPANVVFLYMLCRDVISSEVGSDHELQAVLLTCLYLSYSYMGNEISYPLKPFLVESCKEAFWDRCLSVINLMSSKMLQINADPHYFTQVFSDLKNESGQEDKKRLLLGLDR
Cyclin-dependent kinase 1, sequence (P06493 whole entry): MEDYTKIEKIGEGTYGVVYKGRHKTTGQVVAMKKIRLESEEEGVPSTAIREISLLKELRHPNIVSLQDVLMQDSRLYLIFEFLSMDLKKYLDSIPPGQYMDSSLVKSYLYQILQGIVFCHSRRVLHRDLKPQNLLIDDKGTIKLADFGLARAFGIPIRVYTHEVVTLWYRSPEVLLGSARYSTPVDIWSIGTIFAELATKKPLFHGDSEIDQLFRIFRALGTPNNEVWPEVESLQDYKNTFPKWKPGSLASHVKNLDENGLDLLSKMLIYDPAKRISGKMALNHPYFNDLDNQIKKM

SMILES: O=C(Nc1cc[nH]n1)Nc1cccc2c1C1CCCCN1C2=O (stereo not given)
- IC50 [1]: 470 nM

SMILES: O=C(Nc1cccc(Br)n1)Nc1cccc2c1C1CCCCN1C2=O (stereo not given)
- IC50 [2]: > 25000 nM
- IC50 [3]: > 25000 nM
- IC50 [4]: > 25000 nM
- IC50 [5]: > 25000 nM
- IC50 [6]: > 25000 nM
- IC50 [7]: > 25000 nM
- IC50 [8]: > 25000 nM
- IC50 [1]: 43 nM

SMILES: O=C(Nc1ccc(O)cn1)Nc1cccc2c1C1CCCCN1C2=O (stereo not given)
- IC50 [9]: ≥ 10000 nM
- IC50 [10]: 1300 nM
- IC50 [11]: > 10000 nM
- IC50 [1]: 4000 nM

SMILES: O=C(Nc1cccc2c1C1CCCCN1C2=O)Nc1ncc(F)cc1F (stereo not given)
- IC50 [9]: > 10000 nM
- IC50 [10]: 260 nM
- IC50 [11]: > 10000 nM
- IC50 [1]: 200 nM

SMILES: O=C(Nc1cccc2c1C1CCCCN1C2=O)Nc1nc(Cl)c(Cl)c(Cl)c1Cl (stereo not given)
- IC50 [10]: 10000 nM
- IC50 [11]: > 10000 nM
- IC50 [1]: 4300 nM

SMILES: Cc1cc(NC(=O)Nc2cccc3c2C2CCCCN2C3=O)no1 (stereo not given)
- IC50 [1]: 330 nM

SMILES: O=C(Nc1nc2ccccc2s1)Nc1cccc2c1C1CCCCN1C2=O (stereo not given)
- IC50 [11]: > 10000 nM
- IC50 [1]: 3500 nM

SMILES: O=C(Nc1cccc2c1C1CCCCN1C2=O)NC1CCCCC1 (stereo not given)
- IC50 [10]: > 10000 nM
- IC50 [11]: > 10000 nM
- IC50 [1]: > 10000 nM

SMILES: O=C(Nc1csc(-c2ccncc2)n1)Nc1cccc2c1C1CCCCN1C2=O (stereo not given)
- IC50 [1]: 130 nM

SMILES: O=C(Nc1ccc2cccc(O)c2n1)Nc1cccc2c1C1CCCCN1C2=O (stereo not given)
- IC50 [10]: 700 nM
- IC50 [11]: > 10000 nM
- IC50 [1]: 150 nM

SMILES: O=C(Nc1ccncn1)Nc1cccc2c1C1CCCCN1C2=O (stereo not given)
- IC50 [11]: > 10000 nM
- IC50 [1]: 380 nM

SMILES: Cn1ccc(NC(=O)Nc2cccc3c2C2CCCCN2C3=O)n1 (stereo not given)
- IC50 [1]: 310 nM

SMILES: O=C(Nc1cc(-c2ccccc2)on1)Nc1cccc2c1C1CCCCN1C2=O (stereo not given)
- IC50 [1]: 270 nM

SMILES: O=C(Nc1ccccn1)Nc1cccc2c1C1CCCCN1C2=O (stereo not given)
- IC50 [12]: 75 nM
- Activity [13]: Non-toxic
- Activity [14]: Active
- Activity [15]: Non-toxic
- Activity [16]: Active
- Activity [17]: Active
- Activity [18]: Active
- Activity [19]: 45.3%
- Activity [20]: 51%
- Activity [21]: Non-toxic
- Activity [22]: Non-toxic
- Activity [23]: Active
- Activity [24]: Active
- Activity [25]: Active
- Activity [26]: Non-toxic

SMILES: O=C(Nc1cc(O)c2ccccc2n1)Nc1cccc2c1C1CCCCN1C2=O (stereo not given)
- IC50 [10]: 10000 nM
- IC50 [11]: 5600 nM
- IC50 [1]: 1200 nM

SMILES: O=C(Nc1ccc(Br)cn1)Nc1cccc2c1C1CCCCN1C2=O (stereo not given)
- IC50 [11]: > 10000 nM
- IC50 [1]: 76 nM

SMILES: O=C(Nc1cccc(N2CCCCC2)n1)Nc1cccc2c1C1CCCCN1C2=O (stereo not given)
- IC50 [9]: > 10000 nM
- IC50 [10]: > 10000 nM
- IC50 [11]: > 10000 nM
- IC50 [1]: 360 nM

SMILES: COc1cccnc1NC(=O)Nc1cccc2c1C1CCCCN1C2=O (stereo not given)
- IC50 [9]: 2600 nM
- IC50 [10]: 590 nM
- IC50 [11]: 8100 nM
- IC50 [1]: 1300 nM

SMILES: O=C(Nc1ccccc1)Nc1cccc2c1C1CCCCN1C2=O (stereo not given)
- IC50 [10]: > 10000 nM
- IC50 [11]: > 10000 nM
- IC50 [1]: > 10000 nM

SMILES: O=C(Nc1cscn1)Nc1cccc2c1C1CCCCN1C2=O (stereo not given)
- IC50 [1]: 760 nM

SMILES: O=C(Nc1cc(Br)ccn1)Nc1cccc2c1C1CCCCN1C2=O (stereo not given)
- IC50 [2]: 100 nM
- IC50 [3]: 5000 nM
- IC50 [9]: 1300 nM
- IC50 [4]: 500 nM
- IC50 [10]: 25 nM
- IC50 [11]: 7600 nM
- IC50 [5]: 100 nM
- IC50 [6]: 400 nM
- IC50 [7]: 100 nM
- IC50 [8]: 500 nM
- IC50 [1]: 22 nM

SMILES: O=C(Nc1ncccn1)Nc1cccc2c1C1CCCCN1C2=O (stereo not given)
- IC50 [1]: 750 nM

SMILES: O=C(Nc1cc2ccccc2cn1)Nc1cccc2c1C1CCCCN1C2=O (stereo not given)
- IC50 [2]: 1000 nM
- IC50 [3]: 2000 nM
- IC50 [4]: 4000 nM
- IC50 [10]: 68 nM
- IC50 [11]: > 10000 nM
- IC50 [5]: 2000 nM
- IC50 [6]: 3000 nM
- IC50 [7]: 1000 nM
- IC50 [8]: 3000 nM
- IC50 [1]: 170 nM

SMILES: O=C(Nc1cccc(F)n1)Nc1cccc2c1C1CCCCN1C2=O (stereo not given)
- IC50 [2]: 150 nM
- IC50 [3]: 120 nM
- IC50 [4]: 400 nM
- IC50 [10]: 90 nM
- IC50 [5]: 200 nM
- IC50 [6]: 500 nM
- IC50 [7]: 90 nM
- IC50 [8]: 90 nM
- IC50 [1]: 26 nM

SMILES: Cc1nc(NC(=O)Nc2cccc3c2C2CCCCN2C3=O)cs1 (stereo not given)
- IC50 [1]: 120 nM

SMILES: O=C(Nc1ccc(-c2ccccc2)cn1)Nc1cccc2c1C1CCCCN1C2=O (stereo not given)
- IC50 [9]: > 10000 nM
- IC50 [10]: 4000 nM
- IC50 [11]: > 10000 nM
- IC50 [1]: 140 nM

SMILES: O=C(Nc1cccc2c1C1CCCCN1C2=O)Nc1ncccc1O (stereo not given)
- IC50 [2]: 6000 nM
- IC50 [3]: 500 nM
- IC50 [9]: 1500 nM
- IC50 [4]: 3000 nM
- IC50 [10]: 37 nM
- IC50 [11]: 1800 nM
- IC50 [5]: 400 nM
- IC50 [6]: 800 nM
- IC50 [7]: 1000 nM
- IC50 [8]: 2000 nM
- IC50 [1]: 51 nM

SMILES: O=C(Nc1cnccn1)Nc1cccc2c1C1CCCCN1C2=O (stereo not given)
- Activity [27]: Active
- Activity [28]: Active
- Activity [29]: Active
- Activity [30]: Active
- Activity [31]: Active
- Activity [32]: Active
- Activity [33]: Active
